In brackets after ≈: the same amount, converted by molar mass. Activity calls are given as the source filed them. The rule behind the calls is not given here.
How the values were obtained:
Assay type in all cases: functional
HeLa = assay: Cytotoxicity against human HeLa cells at 10 ug/ml by MTT assay
WiDr = assay: Cytotoxicity against human WiDr cells at 10 ug/ml by MTT assay
Daoy = assay: Cytotoxicity against human Daoy cells

In the case of `C/C1=C/C(=O)CC2=C[C@@H](OC2=O)[C@@H](C(C)C)CC(=O)/C(C)=C/CC1` [SARCOSTOLIDE B], the inhibition at 10 µg/mL (HeLa) is reported as 5.88%, the inhibition at 10 µg/mL (WiDr) is reported as 8.31% and the Activity (Daoy) is reported as “inactive”.
With `C/C1=C\C(=O)CC2=C[C@@H](OC2=O)[C@@H](C(C)C)CC(=O)/C(C)=C/CC1` [SARCOSTOLIDE C] the inhibition at 10 µg/mL (HeLa) was 1.65%, the inhibition at 10 µg/mL (WiDr) was 19.4% and the Activity (Daoy) was “inactive”.
In the case of `C/C1=C/C/C=C(\C)C(=O)C[C@H](C(C)C)[C@H]2C=C(CC(=O)C1)C(=O)O2` [SARCOSTOLIDE F], the inhibition at 10 µg/mL (HeLa) is reported as 7.32%, the inhibition at 10 µg/mL (WiDr) is reported as 29.8% and the Activity (Daoy) is reported as “inactive”.
`C/C1=C\CC[C@@H](C)CC(=O)CC2=C[C@@H](OC2=O)[C@@H](C(C)C)CC1=O` [SARCOSTOLIDE G] was tested, and the inhibition at 10 µg/mL (HeLa) was 18.4%, the inhibition at 10 µg/mL (WiDr) was 20.1% and the Activity (Daoy) was “inactive”.
`C/C1=C/C(=O)CC2=C[C@@H](OC2=O)[C@H](C(C)C)CC(=O)/C(C)=C/CC1` [SARCOSTOLIDE D] was tested, and the inhibition at 10 µg/mL (HeLa) was 11.1%, the inhibition at 10 µg/mL (WiDr) was 29.1% and the Activity (Daoy) was “inactive”.
`C/C1=C/C=C/[C@H](C)C(=O)C[C@H](C(C)C)[C@H]2C=C(CC(=O)C1)C(=O)O2` [SARCOSTOLIDE E] gave an inhibition at 10 µg/mL (HeLa) of 16.8%, an inhibition at 10 µg/mL (WiDr) of 27.5% and an EC50 (Daoy; read-out: ED50 (the source's name)) of 5.5 µg/mL (≈ 16.6 µM).
In the case of `C/C1=C/CC/C(C)=C/C(=O)CC2=C[C@@H](OC2=O)[C@@H](C(C)C)CC1=O` [SARCOSTOLIDE A], the inhibition at 10 µg/mL (HeLa) is reported as 22.3%, the inhibition at 10 µg/mL (WiDr) is reported as 20% and the Activity (Daoy) is reported as “inactive”.
